Data taken from paper PMC5599584, “Kinetic adaptation of human Myo19 for active mitochondrial transport to growing filopodia tips” (Scientific Reports, 2017).
Blank lines part the entries; values can stand above or below the molecule they belong to.

Legend:
Myo19-3IQ [1] = molecular target: T1, Myo19-3IQ (Homo sapiens, UniProt Q96H55); assay type: biochemical; conditions: no actin; 250 µM ATP (initial)
T1 construct: with Calmodulin

Acto·Myo19-3IQ [2] = molecular target: T2, Acto·Myo19-3IQ (Homo sapiens, UniProt Q96H55); test: biochemical
T2 sequence (Q96H55 whole entry, looked up): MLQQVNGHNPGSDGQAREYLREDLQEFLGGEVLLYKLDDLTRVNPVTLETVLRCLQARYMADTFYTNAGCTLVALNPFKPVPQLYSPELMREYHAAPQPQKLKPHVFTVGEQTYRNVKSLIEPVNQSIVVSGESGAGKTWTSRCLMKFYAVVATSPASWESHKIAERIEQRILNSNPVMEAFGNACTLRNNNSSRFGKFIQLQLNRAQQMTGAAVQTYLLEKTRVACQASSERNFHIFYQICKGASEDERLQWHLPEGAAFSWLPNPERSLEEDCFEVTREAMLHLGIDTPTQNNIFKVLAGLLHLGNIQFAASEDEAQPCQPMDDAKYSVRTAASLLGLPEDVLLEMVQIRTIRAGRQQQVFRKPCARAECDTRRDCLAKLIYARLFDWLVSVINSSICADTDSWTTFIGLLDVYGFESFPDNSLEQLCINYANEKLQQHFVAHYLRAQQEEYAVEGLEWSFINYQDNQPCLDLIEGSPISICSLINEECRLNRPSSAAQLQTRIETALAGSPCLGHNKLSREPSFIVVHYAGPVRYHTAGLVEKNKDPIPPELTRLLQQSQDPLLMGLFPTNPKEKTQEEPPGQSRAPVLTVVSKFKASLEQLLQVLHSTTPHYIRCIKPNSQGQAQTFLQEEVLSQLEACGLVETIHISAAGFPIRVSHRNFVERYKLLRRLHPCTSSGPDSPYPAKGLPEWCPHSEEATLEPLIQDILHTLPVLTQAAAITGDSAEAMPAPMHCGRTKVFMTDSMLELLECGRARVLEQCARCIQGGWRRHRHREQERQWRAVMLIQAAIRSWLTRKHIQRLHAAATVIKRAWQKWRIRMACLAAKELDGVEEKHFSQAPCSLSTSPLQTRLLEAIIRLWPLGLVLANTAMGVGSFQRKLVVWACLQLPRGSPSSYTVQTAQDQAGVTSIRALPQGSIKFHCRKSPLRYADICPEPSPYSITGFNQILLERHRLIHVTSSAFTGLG

Myo19-3IQ [3] = molecular target: T1, Myo19-3IQ; test: stopped-flow mant FRET / single turnover; assay type: binding; conditions: read-out: K 1T
Acto·Myo19-3IQ [4] = molecular target: T2, Acto·Myo19-3IQ; test: stopped-flow mant FRET, association kinetics; assay type: binding; design: with Calmodulin; Actin, alpha skeletal muscle (rabbit or chicken skeletal muscle F-actin); conditions: KMg50 buffer pH 7.3, 25 °C; bound to F-actin; labelled compound
[5] = molecular target: F-actin (actin filaments from rabbit or chicken skeletal muscle) (rabbit or chicken) (UniProt P68135)

T1 sequence (Q96H55 whole entry, looked up): as above

Kd (Acto·Myo19-3IQ [2]): 476 ± 116 µM
Molecule: Nc1ncnc2c1ncn2[C@@H]1O[C@H](COP(=O)(O)OP(=O)(O)OP(=O)(O)O)[C@@H](O)[C@H]1O [ATP]
quenched-flow Pi burst; NADH-coupled ATPase (Myo19-3IQ [1]): Myo19-3IQ (in the absence of actin) mixed with ATP yielded a Pi burst amplitude

Kd (Myo19-3IQ [3]): ~0.04 µM
Molecule: CNc1ccccc1C(=O)O[C@H]1C[C@H](n2cnc3c(N)ncnc32)O[C@@H]1COP(=O)(O)OP(=O)(O)OP(=O)(O)O [mT]
stopped-flow mant FRET, association kinetics (Acto·Myo19-3IQ [4]): mT bound similarly to Myo19-3IQ or Acto·Myo19-3IQ

K ATPase: actin concentration at the half maximal steady-state ATPase activity (NADH-coupled assay, 1-100 µM F-actin) [5]: 11.6 µM
Molecule: Myo19-3IQ (human Myo19 motor domain with three IQ light chain-binding motifs, with its associated calmodulin light chain) (from UniProt P0DP23 1-149) (complex)
